Experimental data from US20120115827A1, “3-AMINOBENZAMIDE COMPOUNDS AND VANILLOID RECEPTOR SUBTYPE 1 (VR1) INHIBITORS” (Japan Tobacco Inc., priority 2004, published 2012).

Target: T1, human VR1 (Homo sapiens, UniProt Q8NER1)
T1 construct: expressed in transfected cells
Assay: Inhibition of Ca2+ entry in cells caused by proton (VR1 agonist)
Assay type: cell-based
Conditions: Rat glioma (C6BU1) cells stably expressing human VR1; proton stimulation to pH 5.5; Fura 2-AM fluorescence; read-out: In vitro IC50
Procedure: The assay for evaluation of VR1 inhibition by the inventive compounds will be described below. The assay was intended to evaluate in vitro inhibition of Ca^2+ entry in cells caused by proton, one of the VR1 agonists.
Rat glioma (C6BU1) cells stably expressing human VR1 were suspended in 20 mM MES buffer (at pH 6.8, contg. 20 mM 2-morpholinoethanesulfonate (referred to as MES hereinafter), 115 mM NaCl, 5 mM KCl, 1 mM MgCl2 and 14 mM D-glucose) to make a cell density of 1×10^6 cells/mL. A fluorescent dye, Fura 2-AM solution (Dojindo Corporate, Cat. No. 343-05401) was added to the suspension to make a 5 μM concentration thereof. Further, Pluronic F-127 (Wako Pure Chemical Industries, Ltd., Cat. No. P6866) was added to make a 0.1% content thereof. Then, the suspension was incubated at 37° C. for 30 min. The cells were harvested and washed three times with 20 mM MES buffer. The cells were suspended again to make a cell density of 5×10^5 cells/mL. A 500-μL portion of the suspension was taken with a cuvette (MC MEDICAL, INC., Cat. No. SSR3121), to which […] MES buffer containing 250 mM CaCl2 was added to incorporate Ca^2+ into the cells. At the same time, 5 μL of a test compound solution (in a range of 100 μM to 10 nM in DMSO) was also added to provide a final concentration thereof in a range of 1 μM to 0.1 nM. Alternatively, 5 μl of DMSO was added as control to provide a final concentration of 1% DMSO. The suspension was set in an intracellular ionometer (CAF-110; JASCO) 10 min after those additions. The cells were stimulated with protons by addition of 60 μL of 20 mM MES buffer at pH 1.1 to the suspension to set its pH at 5.5. The activity of the test compound was determined as a difference between the minimum of fluorescence intensity before agonist stimulation and its maximum after the stimulation. The value of IC50 was derived from percentage of inhibition by the test compound compared with the control.

T1 sequence (Q8NER1 whole entry): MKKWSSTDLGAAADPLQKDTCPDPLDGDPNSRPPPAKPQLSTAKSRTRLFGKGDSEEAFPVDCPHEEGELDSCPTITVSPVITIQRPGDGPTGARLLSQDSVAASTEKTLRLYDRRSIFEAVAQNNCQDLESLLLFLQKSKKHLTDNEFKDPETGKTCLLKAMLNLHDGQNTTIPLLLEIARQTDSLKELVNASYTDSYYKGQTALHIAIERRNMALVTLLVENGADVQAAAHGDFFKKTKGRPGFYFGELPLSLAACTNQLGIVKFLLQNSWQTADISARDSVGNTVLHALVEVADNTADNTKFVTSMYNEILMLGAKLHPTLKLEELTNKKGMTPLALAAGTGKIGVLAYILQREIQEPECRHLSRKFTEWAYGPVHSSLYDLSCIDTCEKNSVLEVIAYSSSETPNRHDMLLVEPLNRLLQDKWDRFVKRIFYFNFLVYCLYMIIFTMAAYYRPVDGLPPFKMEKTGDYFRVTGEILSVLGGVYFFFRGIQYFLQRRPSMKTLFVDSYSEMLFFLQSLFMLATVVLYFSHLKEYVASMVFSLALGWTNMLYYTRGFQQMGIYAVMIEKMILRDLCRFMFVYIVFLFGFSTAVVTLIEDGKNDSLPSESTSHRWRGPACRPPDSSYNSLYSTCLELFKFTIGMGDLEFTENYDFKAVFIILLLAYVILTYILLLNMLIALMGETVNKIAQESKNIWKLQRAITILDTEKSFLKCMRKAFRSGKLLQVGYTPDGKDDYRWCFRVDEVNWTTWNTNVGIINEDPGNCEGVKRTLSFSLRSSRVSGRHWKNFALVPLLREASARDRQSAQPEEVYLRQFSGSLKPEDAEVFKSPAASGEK

Row | IC50 [nM] | Structure (SMILES)
1 | ≤ 100 | CN(c1cc(C(=O)Nc2ccc(C(C)(C)C)cc2)ccc1Cl)c1ncc(CO)cc1Cl [Example 78, N-(4-tert-butylphenyl)-4-chloro-3-[N-(3-chloro-5-hydroxymethylpyridin-2-yl)-N-methyl-amino]benzamide]
2 | ≤ 100 | CN(c1cc(C(=O)Nc2ccc(C(F)(F)F)cc2)ccc1Cl)c1ncc(CO)cc1Cl [Example 79, 4-chloro-3-[N-(3-chloro-5-hydroxymethylpyridin-2-yl)-N-methyl-amino]-N-(4-trifluoromethylphenyl)-benzamide]
3 | ≤ 100 | CN(c1cc(C(=O)Nc2ccc(Cl)cc2)ccc1Cl)c1ncc(CO)cc1Cl [Example 80, 4-chloro-3-[N-(3-chloro-5-hydroxymethylpyridin-2-yl)-N-methyl-amino]-N-(4-chlorophenyl)-benzamide]
4 | ≤ 100 | CN(c1cc(C(=O)Nc2ccc(OC(F)(F)F)cc2)ccc1Cl)c1ncc(CO)cc1Cl [Example 81, 4-chloro-3-[N-(3-chloro-5-hydroxymethylpyridin-2-yl)-N-methyl-amino]-N-(4-trifluoromethoxyphenyl)-benzamide]
5 | ≤ 100 | CN(c1cc(C(=O)Nc2ccc(C(F)(F)F)cc2)ccc1F)c1ncc(CO)cc1Cl [Example 82, 3-[N-(3-chloro-5-hydroxymethylpyridin-2-yl)-N-methyl-amino]-4-fluoro-N-(4-trifluoromethylphenyl)-benzamide]
6 | ≤ 100 | CN(c1cc(C(=O)Nc2ccc(OC(F)(F)F)cc2)ccc1F)c1ncc(CO)cc1Cl [Example 83, 3-[N-(3-chloro-5-hydroxymethylpyridin-2-yl)-N-methyl-amino]-4-fluoro-N-(4-trifluoromethoxyphenyl)-benzamide]

Further lines, the compound ahead of its results:

Row | Structure (SMILES) | IC50 [nM]
7 | COCc1cnc(N(CC(N)=O)c2cc(C(=O)Nc3ccc(C(F)(F)F)cc3)ccc2Cl)c(Cl)c1 [Example 72, 4-chloro-3-[N-(3-chloro-5-methoxymethylpyridin-2-yl)-N-(carbamoylmethyl)amino]-N-(trifluoromethylphenyl)-benzamide] | ≤ 100
8 | CCOC(=O)c1cnc(N(C)c2cc(C(=O)Nc3ccc(C(C)(C)C)cc3)ccc2Cl)c(Cl)c1 [Example 73, Ethyl 6-{[5-(4-tert-butylphenylcarbamoyl)-2-chlorophenyl]-methyl-amino}-5-chloronicotinate] | 100 to 1000
9 | CN(c1cc(C(=O)Nc2ccc(C(C)(C)C)cc2)ccc1Cl)c1ncc(C(N)=O)cc1Cl [Example 75, 6-{[5-(4-tert-butylphenylcarbamoyl)-2-chlorophenyl]-methyl-amino}-5-chloronicotinamide] | ≤ 100
10 | CNC(=O)c1cnc(N(C)c2cc(C(=O)Nc3ccc(C(C)(C)C)cc3)ccc2Cl)c(Cl)c1 [Example 76, 6-{[5-(4-tert-butylphenylcarbamoyl)-2-chlorophenyl]-methyl-amino}-5-chloro-N-methylnicotinamide] | 100 to 1000
11 | CN(C)C(=O)c1cnc(N(C)c2cc(C(=O)Nc3ccc(C(C)(C)C)cc3)ccc2Cl)c(Cl)c1 [Example 77, 6-{[5-(4-tert-butylphenylcarbamoyl)-2-chlorophenyl]-methyl-amino}-5-chloro-N,N-dimethylnicotinamide] | 100 to 1000
